Reference: patent US11666589B2, “Pivarubicin and benzarubicin compositions” (Paradox Pharmaceuticals, Inc., priority 2020, dated 2023)

Experiments:
[1] = tested on: CEM/VLB-10; conditions: CEM/VLB-10, selecting drug; cited from earlier work
[2] = tested on: CEM/VLB-100; conditions: CEM/VLB-100, selecting drug; cited from earlier work
[3] = tested on: 32D.3 murine myeloid cells; assay: Drug biotransformation analysis (HPLC of intracellular drug) in 32D.3 cells; format: in vitro ADME
Text: (§1) Intracellular drug was extracted and analyzed by fluorescence HPLC as described previously.

[4] = tested on: 293 embryonic human kidney cells; assay: Drug biotransformation analysis (HPLC of intracellular drug) in 293 cells; format: in vitro ADME
Text: as §1

[5] = tested on: J774.2 murine macrophage-like cells; assay: Drug biotransformation analysis (HPLC of intracellular drug) in J774.2 cells; format: in vitro ADME
Text: as §1

[6] = tested on: 32D.3, J774.2 and 293 cells; assay: Biotransformation to AD 288 after uptake into cells; format: in vitro ADME; conditions: 8 hours after drug uptake into cells
Text: as §1

| SMILES | resistance [1] [fold] | resistance [2] [fold] | % Parent Compound ([3]; 32D.3, 1 hr, 1 μM drug, 37° C.) [%] | % Parent Compound ([3]; 32D.3, 8 hr (1 hr drug + 7 hours drug-free medium)) [%] | % Parent Compound ([4]; 293, 1 hr, 1 μM drug, 37° C.) [%] | % Parent Compound ([4]; 293, 8 hr (1 hr drug + 7 hours drug-free medium)) [%] | % Parent Compound ([5]; J774.2, 1 hr, 1 μM drug, 37° C.) [%] | % Parent Compound ([5]; J774.2, 8 hr (1 hr drug + 7 hours drug-free medium)) [%] | biotransformation to N-benzyladriamycin (AD 288) [6] |
| --- | --- | --- | --- | --- | --- | --- | --- | --- | --- |
| CC[C@]1(O)C[C@@H]2CN(CCc3c([nH]c4ccccc34)[C@@](C(=O)OC)(c3cc4c(cc3OC)N(C)[C@H]3[C@@](O)(C(=O)OC)[C@H](OC(C)=O)[C@]5(CC)C=CCN6CC[C@]43[C@@H]65)C2)C1 [vinblastine] | 10.6 | 269 | – | – | – | – | – | – | – |
| CCCCC(=O)OCC(=O)[C@]1(O)Cc2c(O)c3c(c(O)c2[C@@H](O[C@H]2C[C@H](NCc4ccccc4)[C@H](O)[C@H](C)O2)C1)C(=O)c1c(OC)cccc1C3=O [AD 198, N-Benzyladriamycin-14-valerate] | – | – | 90 | 56 | 80 | 50 | 90 | 50 | approximately 50% |
